# Results reported in patent US10683272B2 (THE JOHNS HOPKINS UNIVERSITY, priority 2014, dated 2020).
# Read-outs that look alike come from different tables or passages of the source.
# Tests used:
# PSMA− PC3 flu cells = test: cell viability, MTS assay; format: cell-based, human; details: 24 h, up to Gd(III) concentration of 1 mM
# Experimental: Prior to evaluating Gd3 for live mouse imaging, its biocompatibility was examined using a cell proliferation assay. Various concentrations of Gd3 were incubated with PSMA+PC3 PIP and PSMA− PC3 flu cells, for 24 h. […] However, Gd(III) concentrations of >1 mM affected PSMA+PC3 PIP cell viability (FIG. 8). The observed level of PSMA+PC3 PIP cell death may be attributable to high cell internalization of Gd3, and the long incubation time employed (24 h).
# PSMA+ PC3 PIP cells [1] = test: cell internalization assay (ICP-MS); format: cell-based, human; details: for percent of incubated dose internalized: PSMA+ PC3 PIP cells
# Experimental: FIG. 6A and FIG. 6B show the % ID of Gd3 cell surface bound (A) and internalized (B) at 1, 4 and 24 h;
# Moreover, slightly higher non-specific uptake was associated with Gd2 in PSMA− PC3 flu cells, which might be related to the lower K1 value of this agent compared to Gd1. As a further check on cellular uptake and internalization, a dual modality Gd monomeric contrast agent labeled with Rhodamine-Red™-X was prepared to confirm the PSMA-mediated internalization of this class of contrast agents (FIG. 5D).
# A time-dependent internalization study was performed for Gd3 (FIG. 6A and FIG. 6B) after 1, 4 and 24 h of incubation. […] A similar amount of Gd (˜33-37% ID) was associated with the cell membrane at those same time-points.
# [2] = system: PSMA+ PC3 PIP and PSMA− PC3 flu tumor xenografts; format: in vivo
# [3] = r1 relaxivity of solution phantoms at 9.4 T and 25° C.; format: physicochemical
# Experimental: (§1) When imaged at 9.4 T and 25° C., solution phantoms indicated r1 relaxivities in PBS that vary between 3.0 and 6.2 mM^−1 s^−1 per Gd(III) and between 3.0 and 12.5 mM-1 s-1 per contrast agent (Table 1). As expected, Gd1 has the lowest relaxivity followed by Gd2 and Gd3 at 25° C. To determine selectivity and specificity of the agents, human prostate cancer cells genetically modified to express high amounts of PSMA (PC3 PIP) and the corresponding wild-type, PSMA-non-expressing cells (PC3 flu) were selected as negative control (Banerjee, Angew., 2001). […] Enhancement and T1 measurements by means of MRI of the cell pellets in the presence and absence of 50 μM Gd3 indicated higher enhancement and difference in T1 relaxation rates, ΔR1 between Gd3 treated PIP cells and the control PIP cells as compared to the Gd3-treated flu cells and the control flu control cells, after removal of the Gd3 from the cell system by washing with standard medium (FIG. 4B and FIG. 4C).
# PSMA = PSMA (Homo sapiens, UniProt Q04609); test: fluorescence-based PSMA inhibition assay (Example 1); format: biochemical
# PSMA+ PC3 PIP cells [4] = test: ICP-MS analysis of Gd in cell pellets; format: cell-based, human
# Excerpt: Thus, the difference between ΔR1 of the PIP cells and that of the flu cells reflects the change due to the specific Gd3 binding to PSMA in the PIP cells.
# [5] = system: PSMA+ PC3 PIP and PSMA− PC3 flu cells; test: T1-weighted MR imaging of cell pellets; format: cell-based, human; details: PSMA+ PC3 PIP vs PSMA− PC3 flu cell pellets
# Experimental: FIG. 4A through FIG. 4C show T1 contrast enhancement generated by Gd3 in an isogenic human PC3 prostate cancer cell pair, PSMA+ PIP and PSMA− flu cells; (A) Color coded T1 maps of PIP and flu cells. Relaxation rates were determined at 25° C. at 9.4 T; (B) Quantification of T1 changes (ΔT1) in PIP and flu cells (n=4, P<0.05) following treatment with Gd3; (C) cellular uptake of Gd3 in PIP and flu cells.
# as §1
# PSMA+ PC3 PIP cells [6] = test: cell viability, MTS assay; format: cell-based, human; details: 24 h
# [7] = 0.05 mmol/Kg i.v., first 20 min after injection
# Chain of PSMA (Q04609 whole entry): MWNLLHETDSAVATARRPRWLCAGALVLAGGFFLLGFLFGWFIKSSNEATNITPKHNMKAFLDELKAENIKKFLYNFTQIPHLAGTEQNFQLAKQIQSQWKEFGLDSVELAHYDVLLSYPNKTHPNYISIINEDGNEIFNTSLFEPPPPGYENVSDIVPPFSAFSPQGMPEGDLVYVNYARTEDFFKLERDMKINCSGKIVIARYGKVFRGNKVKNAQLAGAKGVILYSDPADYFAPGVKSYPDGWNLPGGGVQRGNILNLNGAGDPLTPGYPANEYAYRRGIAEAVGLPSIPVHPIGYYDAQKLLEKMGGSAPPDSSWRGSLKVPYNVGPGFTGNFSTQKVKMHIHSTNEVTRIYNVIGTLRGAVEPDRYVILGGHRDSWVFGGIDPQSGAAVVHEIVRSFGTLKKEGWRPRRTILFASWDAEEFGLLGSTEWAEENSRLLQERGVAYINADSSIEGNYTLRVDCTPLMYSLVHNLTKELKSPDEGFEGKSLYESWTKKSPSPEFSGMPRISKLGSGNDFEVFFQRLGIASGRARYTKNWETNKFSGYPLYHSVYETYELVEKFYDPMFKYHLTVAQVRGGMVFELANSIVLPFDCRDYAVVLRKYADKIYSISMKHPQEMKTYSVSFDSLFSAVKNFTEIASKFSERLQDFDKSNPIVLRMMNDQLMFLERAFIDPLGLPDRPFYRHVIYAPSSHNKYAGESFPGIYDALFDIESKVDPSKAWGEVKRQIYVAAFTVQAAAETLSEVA
substance,measurement,setting,value
"(3S,7S)-5,13,20,28-tetraoxo-32-(2,4,6-tris(1-(2-hydroxy-3-(4,7,10-tris(carboxymethyl)-1,4,7,10-tetraazacyclododecan-1-yl)propyl)-1H-1,2,3-triazol-4-yl)phenoxy)-4,6,12,21,27-pentaazadotriacontane-1,3,7,22-tetracarboxylic acid, trigadolinium(III) salt [Gd3]",cell viability,PSMA− PC3 flu cells,~90%
same,amount of Gd associated with the cell membrane,"PSMA+ PC3 PIP cells [1]; PSMA+ PC3 PIP cells, 1, 4 and 24 h",33-37 % ID
same,percent of incubated dose internalized,PSMA+ PC3 PIP cells [1]; 1 h incubation,28.30±0.47 % ID
same,percent of incubated dose internalized,PSMA+ PC3 PIP cells [1]; 4 h incubation,39.92±3.59 % ID
same,percent of incubated dose internalized,PSMA+ PC3 PIP cells [1]; 24 h incubation,~89.69±3.90 % ID
same,contrast enhancement at PIP tumor,"[2]; 0.05 mmol/Kg i.v., 40 min post-injection",36%
same,"lowering of T1 value, PIP tumor",[2]; [7],0.57 s
same,"lowering of T1 value, PSMA flu tumor",[2]; [7],0.63 s
same,"lowering of T1 value, muscle",[2]; [7],0.261 s
same,contrast enhancement at PIP tumor,"[2]; 0.05 mmol/Kg i.v., until 1.5 h post injection",30%
same,"highest contrast enhancement, PSMA− PC3 flu tumors","[2]; 0.06 mmol/kg i.v., 20 min post-injection",~24%
same,"enhancement in R1, PSMA+ PC3 PIP tumor","[2]; 0.06 mmol/kg i.v., 190 min after injection",24%
same,"ΔR1, PSMA− PC3 flu tumors","[2]; 0.06 mmol/kg i.v., after 40 min",< 20%
same,"average enhancement in R1 values, PSMA+ PC3 PIP tumor","[2]; 0.06 mmol/kg i.v., first 40 to 60 min",36%
same,minimum T1 value of PSMA+ PC3 PIP tumor,"[2]; 0.06 mmol/kg i.v., first 40 to 60 min, n=4","1,819±76 ms"
same,"enhancement in R1, PSMA+ PC3 PIP tumor","[2]; 0.06 mmol/kg i.v., until 90 min",29%
same,"r1 relaxivity, ionic (per Gd(III))","[3]; 9.4 T, 25° C., PBS",3.3 mM⁻¹ s⁻¹
same,"r1 relaxivity, molecular (per contrast agent)","[3]; 9.4 T, 25° C., PBS",9.81 mM⁻¹ s⁻¹
same,r1 relaxivity,[3]; column T1 of Table 1,12.47 mM⁻¹ s⁻¹
same,Ki,PSMA,7.19 nM
same,estimated intracellular Gd(III) concentration,PSMA+ PC3 PIP cells [4],~22.82 µM
same,T1-weighted MR contrast of cell pellets,[5],significant MR contrast enhancement in PSMA+PC3 PIP cells
same,Gd(III) concentrations that affected cell viability,PSMA+ PC3 PIP cells [6],> 1 mM
